Experimental data from patent US8952024B2, “Herbicidal pyrimidone derivatives” (E I du Pont de Nemours and Company, priority 2009, dated 2015).

Assays:
Test in all cases: Test B pre-/postemergence plant response
Assay type in all cases: in vivo
[1] = system: Surinam grass (Brachiaria decumbens)
Outline: (§1)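 Compound in solvent + surfactant applied pre-em (loam/sand) or post-em (plants 2–18 cm, peat medium); greenhouse hold 13–15 days; visual 0–100 control score.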

[2] = system: blackgrass (Alopecurus myosuroides)
Outline: as §1

[3] = system: cocklebur (Xanthium strumarium)
Outline: as §1

[4] = system: corn (Zea mays)
Outline: as §1

[5] = system: downy bromegrass (Bromus tectorum)
Outline: as §1

[6] = system: giant foxtail (Setaria faberii)
Outline: as §1

[7] = system: goosegrass (Eleusine indica)
Outline: as §1

[8] = system: green foxtail (Setaria viridis)
Outline: as §1

[9] = system: johnsongrass (Sorghum halepense)
Outline: as §1

[10] = system: kochia (Kochia scoparia)
Outline: as §1

[11] = system: large crabgrass (Digitaria sanguinalis)
Outline: as §1

[12] = system: morningglory (Ipomoea coccinea)
Outline: as §1

[13] = system: soybean (Glycine max)
Outline: as §1

[14] = system: velvetleaf (Abutilon theophrasti)
Outline: as §1

[15] = system: wild oat (Avena fatua)
Outline: as §1

[16] = system: woolly cupgrass (Eriochloa villosa)
Outline: as §1

[17] = system: yellow nutsedge (Cyperus esculentus)
Outline: as §1

[18] = 31 g ai/ha, postemergence, scale 0 to 100, 0 is no effect, 100 is complete control
[19] = 250 g ai/ha, Preemergence, 0 to 100 scale
[20] = Postemergence, 62 g ai/ha, scale 0 (no effect) to 100 (complete control), 13 to 15 days
[21] = Postemergence, 125 g ai/ha, visual rating after 13 to 15 days, scale 0 (no effect) to 100 (complete control)
[22] = Postemergence, 250 g ai/ha, scale 0 to 100 (0 no effect, 100 complete control)
[23] = Preemergence, 31 g ai/ha, scale 0 to 100 (0 no effect, 100 complete control)
[24] = Preemergence, 125 g ai/ha, 0 to 100 scale
[25] = Preemergence, 62 g ai/ha, scale 0 to 100, 0 no effect, 100 complete control

CCCn1c(-c2ccccc2)ncc(C(=O)C2=C(O)CCCC2=O)c1=O [Compound 50]
Plant response rating, Surinam Grass [1, 18]: 65
Plant response rating, Surinam Grass [1, 19]: 100
Plant response rating, Surinam Grass [1, 20]: 75
Plant response rating, Surinam Grass [1, 21]: 80
Plant response rating, Surinam Grass [1, 22]: 85
Plant response rating, Surinam Grass [1, 23]: 75
Surinam Grass plant response rating [1, 24]: 98
Plant response rating, Blackgrass [2, 18]: 5
Plant response rating, Blackgrass [2, 19]: 5
Plant response rating, Blackgrass [2, 20]: 5
Plant response rating, Blackgrass [2, 21]: 5
Plant response rating, Blackgrass [2, 22]: 15
Plant response rating, Blackgrass [2, 23]: 0
Plant response rating, Blackgrass [2, 25]: 0
Blackgrass plant response rating [2, 24]: 0
Plant response rating, Cocklebur [3, 18]: 85
Plant response rating, Cocklebur [3, 20]: 85
Plant response rating, Cocklebur [3, 21]: 90
Plant response rating, Cocklebur [3, 22]: 90
Plant response rating, Cocklebur [3, 25]: 75
Cocklebur plant response rating [3, 24]: 75
Plant response rating, Corn [4, 18]: 5
Plant response rating, Corn [4, 19]: 0
Plant response rating, Corn [4, 20]: 10
Plant response rating, Corn [4, 21]: 25
Plant response rating, Corn [4, 22]: 25
Plant response rating, Corn [4, 23]: 0
Plant response rating, Corn [4, 25]: 0
Corn plant response rating [4, 24]: 0
Plant response rating, Bromegrass, Downy [5, 18]: 0
Plant response rating, Bromegrass, Downy [5, 19]: 0
Plant response rating, Bromegrass, Downy [5, 20]: 5
Plant response rating, Bromegrass, Downy [5, 21]: 20
Plant response rating, Bromegrass, Downy [5, 22]: 20
Plant response rating, Bromegrass, Downy [5, 23]: 0
Plant response rating, Bromegrass, Downy [5, 25]: 0
Bromegrass, Downy plant response rating [5, 24]: 0
Plant response rating, Foxtail, Giant [6, 18]: 75
Plant response rating, Foxtail, Giant [6, 19]: 90
Plant response rating, Foxtail, Giant [6, 20]: 85
Plant response rating, Foxtail, Giant [6, 21]: 95
Plant response rating, Foxtail, Giant [6, 22]: 95
Plant response rating, Foxtail, Giant [6, 23]: 45
Plant response rating, Foxtail, Giant [6, 25]: 75
Foxtail, Giant plant response rating [6, 24]: 90
Plant response rating, Goosegrass [7, 18]: 75
Plant response rating, Goosegrass [7, 19]: 100
Plant response rating, Goosegrass [7, 20]: 80
Plant response rating, Goosegrass [7, 21]: 90
Plant response rating, Goosegrass [7, 22]: 90
Plant response rating, Goosegrass [7, 23]: 95
Goosegrass plant response rating [7, 24]: 100
Plant response rating, Foxtail, Green [8, 18]: 80
Plant response rating, Foxtail, Green [8, 19]: 100
Plant response rating, Foxtail, Green [8, 20]: 80
Plant response rating, Foxtail, Green [8, 21]: 95
Plant response rating, Foxtail, Green [8, 22]: 95
Plant response rating, Foxtail, Green [8, 23]: 50
Plant response rating, Foxtail, Green [8, 25]: 50
Foxtail, Green plant response rating [8, 24]: 95
Plant response rating, Johnsongrass [9, 18]: 0
Plant response rating, Johnsongrass [9, 19]: 95
Plant response rating, Johnsongrass [9, 20]: 10
Plant response rating, Johnsongrass [9, 21]: 65
Plant response rating, Johnsongrass [9, 22]: 70
Plant response rating, Johnsongrass [9, 23]: 0
Plant response rating, Johnsongrass [9, 25]: 20
Johnsongrass plant response rating [9, 24]: 90
Plant response rating, Kochia [10, 18]: 95
Plant response rating, Kochia [10, 20]: 100
Plant response rating, Kochia [10, 21]: 100
Plant response rating, Kochia [10, 22]: 100
Plant response rating, Crabgrass, Large [11, 18]: 75
Plant response rating, Crabgrass, Large [11, 19]: 100
Plant response rating, Crabgrass, Large [11, 20]: 85
Plant response rating, Crabgrass, Large [11, 21]: 95
Plant response rating, Crabgrass, Large [11, 22]: 98
Plant response rating, Crabgrass, Large [11, 23]: 98
Plant response rating, Crabgrass, Large [11, 25]: 100
Crabgrass, Large plant response rating [11, 24]: 100
Plant response rating, Morningglory [12, 18]: 10
Plant response rating, Morningglory [12, 19]: 55
Plant response rating, Morningglory [12, 20]: 25
Plant response rating, Morningglory [12, 21]: 70
Plant response rating, Morningglory [12, 22]: 80
Plant response rating, Morningglory [12, 23]: 0
Plant response rating, Morningglory [12, 25]: 0
Plant response rating, Soybean [13, 18]: 85
Plant response rating, Soybean [13, 19]: 0
Plant response rating, Soybean [13, 20]: 85
Plant response rating, Soybean [13, 21]: 95
Plant response rating, Soybean [13, 22]: 95
Plant response rating, Soybean [13, 23]: 0
Plant response rating, Velvetleaf [14, 18]: 90
Plant response rating, Velvetleaf [14, 19]: 100
Plant response rating, Velvetleaf [14, 20]: 98
Plant response rating, Velvetleaf [14, 21]: 98
Plant response rating, Velvetleaf [14, 22]: 100
Plant response rating, Velvetleaf [14, 23]: 85
Velvetleaf plant response rating [14, 24]: 100
Plant response rating, Oat, Wild [15, 18]: 5
Plant response rating, Oat, Wild [15, 19]: 0
Plant response rating, Oat, Wild [15, 20]: 5
Plant response rating, Oat, Wild [15, 21]: 10
Plant response rating, Oat, Wild [15, 22]: 30
Plant response rating, Oat, Wild [15, 23]: 0
Oat, Wild plant response rating [15, 24]: 0
Plant response rating, Cupgrass, Woolly [16, 18]: 70
Plant response rating, Cupgrass, Woolly [16, 19]: 70
Plant response rating, Cupgrass, Woolly [16, 20]: 75
Plant response rating, Cupgrass, Woolly [16, 21]: 80
Plant response rating, Cupgrass, Woolly [16, 22]: 85
Plant response rating, Cupgrass, Woolly [16, 23]: 0
Plant response rating, Cupgrass, Woolly [16, 25]: 5
Cupgrass, Woolly plant response rating [16, 24]: 15
Plant response rating, Nutsedge, Yellow [17, 18]: 70
Plant response rating, Nutsedge, Yellow [17, 19]: 90
Plant response rating, Nutsedge, Yellow [17, 20]: 70
Plant response rating, Nutsedge, Yellow [17, 21]: 70
Plant response rating, Nutsedge, Yellow [17, 22]: 75
Plant response rating, Nutsedge, Yellow [17, 23]: 80
Nutsedge, Yellow plant response rating [17, 24]: 90
